# Test results from the supplement of paper PMC6045584.
# ± gives the standard deviation of the averaged measurements.
# Assays:
# [1] = compound: Cc1ccc(NC(=O)c2ccc(CN3CCN(C)CC3)cc2)cc1Nc1nccc(-c2cccnc2)n1 [IMATINIB]; experiment: surviving fraction relative to DMSO-only wells; higher = less growth inhibition; conditions: exposure time: 5 days
# How it was run: (§1)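 For each tumour cell line, log-phase cells were put into 384-well plates at 250–500 cells per well, then after 24 hours exposed continuously for five days to inhibitors at 0.5, 1, 5, 10, 50, 100, 500 and 1000 nM. Viability was assessed by CellTiter-Glo luminescence, with surviving fraction expressed relative to the median of DMSO-only wells. Lines were screened three times and retained only if replicate Pearson r exceeded 0.7 and median Z' exceeded 0.3.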
# [2] = compound: COc1cc2nccc(Oc3ccc(NC(=O)C4(C(=O)Nc5ccc(F)cc5)CC4)cc3)c2cc1OC [CABOZANTINIB]; experiment: as above; conditions: exposure time: 5 days
# How it was run: as §1
Test System,surviving fraction ([1]; 0.5 nM),surviving fraction ([1]; 5 nM),surviving fraction ([1]; 10 nM),surviving fraction ([1]; 50 nM),surviving fraction ([1]; 100 nM),surviving fraction ([1]; 500 nM),surviving fraction ([1]; 1000 nM),surviving fraction ([2]; 0.5 nM),surviving fraction ([2]; 1 nM),surviving fraction ([2]; 5 nM),surviving fraction ([2]; 10 nM),surviving fraction ([2]; 50 nM),surviving fraction ([2]; 100 nM),surviving fraction ([2]; 500 nM),surviving fraction ([2]; 1000 nM),surviving fraction ([1]; 1 nM)
CAL51 BREAST,1.04 ± 0.096,1.08 ± 0.036,1.06 ± 0.055,1.08 ± 0.024,1.06 ± 0.033,1.1 ± 0.012,1.09 ± 0.054,1.01 ± 0.08,0.953 ± 0.025,1.04 ± 0.041,0.954 ± 0.062,1.06 ± 0.056,1.07 ± 0.022,0.944 ± 0.091,0.89 ± 0.015,–
MDAMB468 BREAST,0.997 ± 0.075,1.01 ± 0.02,1.06 ± 0.066,1.09 ± 0.081,1.18 ± 0.032,1.103 ± 0.01,1.06 ± 0.06,1.04 ± 0.089,1.11 ± 0.044,1.05 ± 0.057,1.09 ± 0.017,1.13 ± 0.067,1.15 ± 0.07,1.05 ± 0.086,1.07 ± 0.092,1.05 ± 0.059
22RV1 PROSTATE,1.06 ± 0.068,1 ± 0.1,1.05 ± 0.046,–,–,1.14 ± 0.14,–,0.946 ± 0.039,1.03 ± 0.018,0.992 ± 0.056,1 ± 0.13,1.03 ± 0.06,1.08 ± 0.15,1.07 ± 0.095,0.909 ± 0.18,1.08 ± 0.019
JURKAT HAEMATOPOIETIC AND LYMPHOID TISSUE,1.05 ± 0.031,0.986 ± 0.034,–,0.994 ± 0.032,1.02 ± 0.038,1.03 ± 0.039,1.04 ± 0.041,1.07 ± 0.015,1.03 ± 0.014,1.05 ± 0.042,1.05 ± 0.022,0.998 ± 0.036,0.985 ± 0.017,1.04 ± 0.021,0.972 ± 0.0044,1.07 ± 0.031
HUO3N1 BONE,1.06 ± 0.039,1.072 ± 0.0071,1.04 ± 0.027,–,–,0.892 ± 0.038,0.878 ± 0.062,1.05 ± 0.034,1.05 ± 0.066,1.02 ± 0.025,0.953 ± 0.0036,0.916 ± 0.014,0.861 ± 0.021,0.742 ± 0.07,0.666 ± 0.008,0.9677 ± 0.0058
HCC1395 BREAST,1.23 ± 0.023,1.24 ± 0.097,1.36 ± 0.13,1.19 ± 0.16,1.36 ± 0.049,1.15 ± 0.068,1.11 ± 0.29,1.12 ± 0.073,1.02 ± 0.06,1.14 ± 0.045,1.23 ± 0.034,1.38 ± 0.14,1.33 ± 0.053,1.13 ± 0.085,1.2 ± 0.086,1.06 ± 0.11
ZR751 BREAST,1.23 ± 0.15,1.05 ± 0.1,1.17 ± 0.23,1.16 ± 0.11,1.11 ± 0.063,1.13 ± 0.065,1.07 ± 0.14,0.87 ± 0.067,1.02 ± 0.013,1.05 ± 0.083,0.995 ± 0.032,1.04 ± 0.12,1.03 ± 0.086,1.07 ± 0.081,1.03 ± 0.087,1.15 ± 0.14
SNU475 LIVER,1.04 ± 0.086,1.06 ± 0.036,1.07 ± 0.019,1.09 ± 0.0085,–,1.06 ± 0.045,–,1 ± 0.033,0.972 ± 0.049,0.987 ± 0.031,0.991 ± 0.053,1 ± 0.012,0.985 ± 0.048,0.923 ± 0.023,0.876 ± 0.021,–
SKBR3 BREAST,1.02 ± 0.2,–,1.11 ± 0.14,1.09 ± 0.081,1.16 ± 0.063,1.24 ± 0.15,1.07 ± 0.15,1.02 ± 0.1,0.954 ± 0.11,1.07 ± 0.083,0.973 ± 0.011,1.12 ± 0.11,1.06 ± 0.098,0.987 ± 0.077,0.973 ± 0.025,1.09 ± 0.09
SCC36 HEADNECK,1.03 ± 0.11,1.09 ± 0.12,–,1.11 ± 0.024,–,0.886 ± 0.066,–,1.03 ± 0.092,0.961 ± 0.074,1.09 ± 0.066,1.02 ± 0.032,1.1 ± 0.09,1.07 ± 0.073,1.07 ± 0.11,0.88 ± 0.081,1.04 ± 0.18
CAL72 BONE,1.11 ± 0.14,1.12 ± 0.065,1.07 ± 0.1,1.15 ± 0.2,–,1.12 ± 0.14,1.14 ± 0.087,1.03 ± 0.082,1.03 ± 0.093,1.07 ± 0.11,1.06 ± 0.079,1.09 ± 0.095,1.14 ± 0.019,1.11 ± 0.12,1.08 ± 0.11,1.09 ± 0.11
LNCAP PROSTATE,–,0.968 ± 0.068,–,0.967 ± 0.14,0.986 ± 0.049,–,–,0.622 ± 0.084,1.02 ± 0.041,0.925 ± 0.05,0.897 ± 0.1,0.936 ± 0.042,0.976 ± 0.057,0.766 ± 0.013,0.383 ± 0.023,1.1 ± 0.1
A549 LUNG,1.09 ± 0.035,1.11 ± 0.041,1.09 ± 0.041,1.11 ± 0.049,1.1 ± 0.033,–,1.12 ± 0.016,1.03 ± 0.016,0.976 ± 0.028,0.977 ± 0.022,0.98 ± 0.012,1.01 ± 0.02,1.01 ± 0.03,0.994 ± 0.021,0.97 ± 0.029,1.07 ± 0.026
SCC90 HEADNECK,–,1.07 ± 0.011,1.01 ± 0.073,1.17 ± 0.076,1.14 ± 0.08,1.17 ± 0.067,1.26 ± 0.082,0.858 ± 0.053,0.819 ± 0.089,0.9093 ± 0.0042,0.997 ± 0.086,1.09 ± 0.17,1.05 ± 0.15,0.852 ± 0.081,0.874 ± 0.087,–
SUM44 BREAST,1.3 ± 0.48,1.24 ± 0.36,1.23 ± 0.28,1.27 ± 0.31,–,1.26 ± 0.34,1.11 ± 0.23,1.21 ± 0.32,1.18 ± 0.3,1.24 ± 0.24,1.21 ± 0.23,1.36 ± 0.4,1.3 ± 0.35,1.2 ± 0.33,1.27 ± 0.39,–
MHM BONE,1.07 ± 0.032,1.09 ± 0.043,1.09 ± 0.045,–,–,1.08 ± 0.029,–,1.02 ± 0.045,1.01 ± 0.037,1.02 ± 0.026,1.04 ± 0.043,1.044 ± 0.0055,0.99 ± 0.021,0.896 ± 0.022,0.915 ± 0.019,1.03 ± 0.059
H23 LUNG,1.04 ± 0.049,1.06 ± 0.031,1.07 ± 0.0035,1.08 ± 0.07,1.13 ± 0.061,1.12 ± 0.066,1.13 ± 0.065,0.962 ± 0.052,0.931 ± 0.021,0.974 ± 0.022,0.924 ± 0.032,0.945 ± 0.043,0.936 ± 0.053,0.937 ± 0.066,0.925 ± 0.028,1.01 ± 0.021
SUM149 BREAST,1.04 ± 0.08,1.07 ± 0.079,1.08 ± 0.072,–,0.951 ± 0.07,0.866 ± 0.045,1.01 ± 0.046,1.03 ± 0.054,0.979 ± 0.19,0.912 ± 0.061,0.997 ± 0.021,0.987 ± 0.12,0.96 ± 0.084,0.91 ± 0.15,0.924 ± 0.091,1.11 ± 0.047
MFM223 BREAST,1.27 ± 0.17,1.13 ± 0.057,1.19 ± 0.14,1.19 ± 0.063,1.17 ± 0.1,1.18 ± 0.055,1.15 ± 0.052,1.12 ± 0.16,1.04 ± 0.048,1.12 ± 0.094,1.06 ± 0.086,1.16 ± 0.17,1.22 ± 0.073,1.05 ± 0.029,0.824 ± 0.098,1.24 ± 0.041
ASKA SYNOVIAL,1.1 ± 0.017,1.23 ± 0.1,1.08 ± 0.095,–,1.19 ± 0.1,1.21 ± 0.095,1.07 ± 0.094,1.09 ± 0.049,1.1 ± 0.062,1.13 ± 0.11,1.18 ± 0.029,1.08 ± 0.04,1.2 ± 0.03,1.1 ± 0.1,1.03 ± 0.029,1.09 ± 0.03
HSSYII SYNOVIAL,1 ± 0.1,–,1.04 ± 0.049,0.966 ± 0.021,0.998 ± 0.033,0.971 ± 0.063,0.948 ± 0.024,0.909 ± 0.022,0.927 ± 0.067,0.935 ± 0.048,0.923 ± 0.025,0.963 ± 0.071,0.888 ± 0.014,0.787 ± 0.0083,0.671 ± 0.043,0.967 ± 0.026
HT1080 SOFT TISSUE,1.045 ± 0.01,1.1 ± 0.048,1.07 ± 0.021,1.04 ± 0.036,1.03 ± 0.033,–,–,1.05 ± 0.025,0.999 ± 0.021,1.01 ± 0.021,1.03 ± 0.013,1.01 ± 0.022,1.01 ± 0.014,0.973 ± 0.0017,0.965 ± 0.033,1.074 ± 0.0023
